{
  "source": "PubChem BioAssay AID256",
  "about": "(DTP/NCI, 2004)",
  "test_system": "CD2F1 mice, L1210 leukemia ip, survival T/C",
  "assay": "NCI In Vivo Anticancer Drug Screen. Data for tumor model L1210 Leukemia (intraperitoneal) in CD2F1 (CDF1) mice",
  "conditions": "higher = longer survival",
  "summary_of_the_method": "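Implant tumor; dose compound or vehicle; measure endpoint in both groups; report treated divided by control.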",
  "key": {"[1]": {"conditions": "endpoint: mean survival time, dose: 100.0 mg/kg/injection, schedule: Q04DX003 (ip), vehicle: saline with Tween-80"}, "[2]": {"conditions": "endpoint: mean survival time, dose: 200.0 mg/kg/injection, schedule: Q04DX003 (ip), vehicle: saline with Tween-80"}, "[3]": {"conditions": "endpoint: mean survival time, dose: 75.0 mg/kg/injection, schedule: Q01DX001 (ip), vehicle: saline"}, "[4]": {"conditions": "endpoint: mean survival time, dose: 100.0 mg/kg/injection, schedule: Q01DX009 (ip), vehicle: saline with Tween-80"}, "[5]": {"conditions": "endpoint: mean survival time, dose: 200.0 mg/kg/injection, schedule: Q01DX009 (ip), vehicle: saline with Tween-80"}, "[6]": {"conditions": "endpoint: mean survival time, dose: 400.0 mg/kg/injection, schedule: Q01DX009 (ip), vehicle: saline with Tween-80"}, "[7]": {"conditions": "endpoint: mean survival time, dose: 400.0 mg/kg/injection, schedule: Q04DX003 (ip), vehicle: saline with Tween-80"}},
  "note": "Inconclusive results and toxic doses are left out.",
  "data": [
    {"smiles": "CN1NC=Nc2c1[nH]cnc2=S", "values": [
      {"measurement": "T/C", "setting": "endpoint: mean survival time, dose: 75.0 mg/kg/injection, schedule: Q01DX001 (ip), vehicle: other", "result": "89 % of control"},
      {"measurement": "T/C", "setting": "endpoint: mean survival time, dose: 150.0 mg/kg/injection, schedule: Q01DX001 (ip), vehicle: other", "result": "96 % of control"}
    ]},
    {"smiles": "O=NN(CCCl)C(=O)NC1CSCSC1", "values": [
      {"measurement": "T/C", "setting": "endpoint: mean survival time, dose: 6.0 mg/kg/injection, schedule: Q01DX001 (ip), vehicle: saline with Tween-80", "result": "164 % of control"},
      {"measurement": "T/C", "setting": "endpoint: mean survival time, dose: 9.0 mg/kg/injection, schedule: Q01DX001 (ip), vehicle: saline with Tween-80", "result": "297 % of control"},
      {"measurement": "T/C", "setting": "endpoint: mean survival time, dose: 13.0 mg/kg/injection, schedule: Q01DX001 (ip), vehicle: saline with Tween-80", "result": "331 % of control"},
      {"measurement": "T/C", "setting": "endpoint: mean survival time, dose: 20.0 mg/kg/injection, schedule: Q01DX001 (ip), vehicle: saline with Tween-80", "result": "352 % of control"},
      {"measurement": "T/C", "setting": "endpoint: mean survival time, dose: 30.0 mg/kg/injection, schedule: Q01DX001 (ip), vehicle: saline with Tween-80", "result": "344 % of control"}
    ]},
    {"smiles": "CN(Cc1ccccc1)C1CCC(C(=O)O)CC1", "note": "(configuration not stated)", "values": [
      {"measurement": "T/C", "setting": "endpoint: mean survival time, dose: 100.0 mg/kg/injection, schedule: Q01DX009 (ip), vehicle: saline", "result": "107 % of control"},
      {"measurement": "T/C", "setting": "endpoint: mean survival time, dose: 200.0 mg/kg/injection, schedule: Q01DX009 (ip), vehicle: saline", "result": "107 % of control"},
      {"measurement": "T/C", "setting": "endpoint: mean survival time, dose: 400.0 mg/kg/injection, schedule: Q01DX009 (ip), vehicle: saline", "result": "100 % of control"}
    ]},
    {"smiles": "Cc1ccc(CNc2cc(C)ccn2)cc1", "values": [
      {"measurement": "T/C", "setting": "[1]", "result": "100 % of control"},
      {"measurement": "T/C", "setting": "[2]", "result": "91 % of control"}
    ]},
    {"smiles": "CCNC1=CC(=O)CC(C)(C)C1", "values": [
      {"measurement": "T/C", "setting": "[3]", "result": "106 % of control"},
      {"measurement": "T/C", "setting": "endpoint: mean survival time, dose: 150.0 mg/kg/injection, schedule: Q01DX001 (ip), vehicle: saline", "result": "101 % of control"},
      {"measurement": "T/C", "setting": "endpoint: mean survival time, dose: 300.0 mg/kg/injection, schedule: Q01DX001 (ip), vehicle: saline", "result": "109 % of control"}
    ]},
    {"smiles": "COC1=CC(c2ccccc2[N+](=O)[O-])OC1=O", "note": "(configuration not stated)", "values": [
      {"measurement": "T/C", "setting": "[4]", "result": "97 % of control"},
      {"measurement": "T/C", "setting": "[1]", "result": "96 % of control"},
      {"measurement": "T/C", "setting": "[5]", "result": "91 % of control"},
      {"measurement": "T/C", "setting": "[2]", "result": "91 % of control"},
      {"measurement": "T/C", "setting": "[6]", "result": "91 % of control"},
      {"measurement": "T/C", "setting": "[7]", "result": "93 % of control"}
    ]},
    {"smiles": "COc1cc(NCc2ccccc2O)c2ncccc2c1", "values": [
      {"measurement": "T/C", "setting": "endpoint: mean survival time, dose: 50.0 mg/kg/injection, schedule: Q04DX003 (ip), vehicle: saline with Tween-80", "result": "91 % of control"},
      {"measurement": "T/C", "setting": "[1]", "result": "91 % of control"},
      {"measurement": "T/C", "setting": "[2]", "result": "91 % of control"}
    ]},
    {"smiles": "O=C(O)c1cccc(C(=O)O)c1", "values": [
      {"measurement": "T/C", "setting": "[1]", "result": "95 % of control"},
      {"measurement": "T/C", "setting": "[2]", "result": "102 % of control"},
      {"measurement": "T/C", "setting": "[7]", "result": "102 % of control"}
    ]},
    {"smiles": "CCC(C)CC(=O)Nc1cccc(O)c1", "note": "(configuration not stated)", "values": [
      {"measurement": "T/C", "setting": "[1]", "result": "96 % of control"},
      {"measurement": "T/C", "setting": "[2]", "result": "96 % of control"},
      {"measurement": "T/C", "setting": "[7]", "result": "91 % of control"}
    ]},
    {"smiles": "CC(C)(Nc1nc2c(ncn2C2OC(CO)C(O)C2O)c(=O)[nH]1)P(=O)(O)O", "note": "(configuration not stated)", "values": [
      {"measurement": "T/C", "setting": "endpoint: median survival time, dose: 12.5 mg/kg/injection, schedule: Q01DX005 (ip), vehicle: water", "result": "105 % of control"},
      {"measurement": "T/C", "setting": "endpoint: median survival time, dose: 25.0 mg/kg/injection, schedule: Q01DX005 (ip), vehicle: water", "result": "103 % of control"},
      {"measurement": "T/C", "setting": "endpoint: median survival time, dose: 50.0 mg/kg/injection, schedule: Q01DX005 (ip), vehicle: water", "result": "108 % of control"},
      {"measurement": "T/C", "setting": "endpoint: median survival time, dose: 100.0 mg/kg/injection, schedule: Q01DX005 (ip), vehicle: water", "result": "105 % of control"}
    ]},
    {"smiles": "O=[N+]([O-])c1cc(Br)cc(Br)c1[N+](=O)[O-]", "values": [
      {"measurement": "T/C", "setting": "endpoint: mean survival time, dose: 100.0 mg/kg/injection, schedule: Q01DX001 (ip), vehicle: saline with Tween-80", "result": "97 % of control"},
      {"measurement": "T/C", "setting": "[4]", "result": "102 % of control"},
      {"measurement": "T/C", "setting": "endpoint: mean survival time, dose: 200.0 mg/kg/injection, schedule: Q01DX001 (ip), vehicle: saline with Tween-80", "result": "89 % of control"},
      {"measurement": "T/C", "setting": "[5]", "result": "102 % of control"},
      {"measurement": "T/C", "setting": "endpoint: mean survival time, dose: 400.0 mg/kg/injection, schedule: Q01DX001 (ip), vehicle: saline with Tween-80", "result": "95 % of control"},
      {"measurement": "T/C", "setting": "[6]", "result": "98 % of control"}
    ]},
    {"smiles": "FC1(F)C(Cl)=[C]([Hg][C]2=C(Cl)C(F)(F)C(F)(F)C2(F)F)C(F)(F)C1(F)F", "values": [
      {"measurement": "T/C", "setting": "[3]", "result": "98 % of control"}
    ]},
    {"smiles": "NC(=O)c1nnc(-c2ccccn2)[nH]c1=O", "values": [
      {"measurement": "T/C", "setting": "endpoint: mean survival time, dose: 25.0 mg/kg/injection, schedule: Q01DX001 (ip), vehicle: Klucel (hydroxypropylcellulose) (HPC)", "result": "94 % of control"},
      {"measurement": "T/C", "setting": "endpoint: mean survival time, dose: 50.0 mg/kg/injection, schedule: Q01DX001 (ip), vehicle: Klucel (hydroxypropylcellulose) (HPC)", "result": "98 % of control"},
      {"measurement": "T/C", "setting": "endpoint: mean survival time, dose: 100.0 mg/kg/injection, schedule: Q01DX001 (ip), vehicle: Klucel (hydroxypropylcellulose) (HPC)", "result": "98 % of control"}
    ]},
    {"smiles": "CCOC(=O)C1SCSCC1=O", "note": "(configuration not stated)", "values": [
      {"measurement": "T/C", "setting": "[4]", "result": "101 % of control"},
      {"measurement": "T/C", "setting": "[5]", "result": "101 % of control"},
      {"measurement": "T/C", "setting": "[6]", "result": "98 % of control"}
    ]}
  ]
}
